Measurements: article PMC10799042 (Scientific Reports, 2024)

How the values were obtained:
nitrite = test: Nitrite assay (Greiss reagent) in brain homogenate; type: in vivo; settings: brain THS of mice, scopolamine 1.5 mg/kg i.p.; donepezil and compounds 2 mg/kg p.o.; mean ± SD
Protocol: (§1) The animals were properly acclimated before being randomly placed into 12 groups (I-XII), with six animals in each group. […] Following the delivery of the dose to the mouse, the rodent's behaviour was assessed using the traditional Morris water maze (MWM) technique.
(§2) After five days of behavioral assessment, the mice's brains were removed and homogenized (blended) in chilled phosphate buffer (pH 7.4) at a concentration of 10% w/v (weight per volume). The homogenates were then centrifuged (spun at high speed) for 20 min at 4 °C to separate the supernatant (liquid) from the pellet (solid material). The supernatant was then collected to measure biological substances.
The amount of nitric oxide in THS was calculated using Greiss' reagent, a mixture of chemicals that reacts with nitric oxide to produce a colored product. The absorbance of the colored product was computed at 540 nm and the concentration of nitrite was determined using a standard curve of known nitrite concentrations.

[1] = tested on: Reduced glutathione (GSH); test: Reduced glutathione (GSH) assay in brain homogenate; type: in vivo; settings: brain THS of mice, scopolamine 1.5 mg/kg i.p.; donepezil and compounds 2 mg/kg p.o.; mean ± SD
Protocol: as §1, §2
The method described by Jollow et al. was used to measure glutathione (GSH) levels. First, 1.0 mL of 4% sulfosalicylic acid was added to 1.0 mL of tissue homogenate to precipitate the GSH. The mixture was then incubated at 4 °C for 1 h and centrifuged at 1200 rpm for 10 min at 4 °C. The supernatant was collected and diluted to a final volume of 3.0 mL with phosphate buffer and Ellman's reagent. […]

malondialdehyde (MDA) = test: Lipid peroxidation (LPO) assay, MDA in brain homogenate; type: in vivo; settings: brain THS of mice, scopolamine 1.5 mg/kg i.p.; donepezil and compounds 2 mg/kg p.o.; mean ± SD
Protocol: as §1, §2
The amount of malondialdehyde (MDA), a marker of lipid peroxidation (LPO), was measured using a method described by Wills[10]. Tris–HCl buffer and THS were mixed and incubated at 37 °C for 2 h with 10% trichloroacetic acid. After incubation, the mixture was centrifuged again (at 1000 rpm for 10 min). […] After cooling, 1.0 mL of double-distilled water was added, and the absorbance was measured at 532 nm.

Catalase = Catalase assay in brain homogenate; type: in vivo; settings: brain THS of mice, scopolamine 1.5 mg/kg i.p.; donepezil and compounds 2 mg/kg p.o.; mean ± SD
Protocol: as §1, §2
Employing the methodology of Luck et al., catalase activity was quantified. The sample contained H2O2 (1.0 mL, 0.019 M), phosphate buffer (1.95 mL, 0.05 M, pH 7.0), and THS (0.05 mL). The optical density was computed at a wavelength of 240 nm. The findings were shown as μM H2O2 decomposition/min/mg protein[13].

[2] = tested on: scopolamine-induced memory impairment and learning disability in mice; test: Morris water maze, scopolamine-induced memory impairment; type: in vivo, Swiss albino male mice; settings: for escape latency versus scopolamine-treated mice (in words): 2 mg/kg, day 1 to 5; for Escape latency, 2nd Day: day 2; for Escape latency, 3rd Day: day 3; for Escape latency, 4th Day: day 4; for Escape latency, 5th Day: day 5
Protocol: Swiss albino male mice weighing 25–30 g were purchased from LLRUVAS in Hisar, Haryana, India. […] The housing, care, and handling of the animals were done per CPCSEA requirements. The animals were exposed to the laboratory setting for seven days before the experiment.
as §1
Five days of continuous animal evaluations were conducted using the MWM model. […] The tank was placed in a dim laboratory, and using wires anchored at the pool's edge at an angle to one another, it was divided into four equal pieces (P1–P4). A stage in the targeted area (P4) of the pool with an upper face (6 × 6 cm^2) immersed in the water (1.0 cm below the surface). The location of the stage stayed the same throughout the evaluation. The animals were subjected to water pools throughout the evaluation by turning their heads towards the wall from any of the four segments, namely P1-P4, and being given 90 s to recognise the stage placed in a pool. If the animal couldn't get to the stage in 90 s, they were gently guided onto the stage under supervision. On the sixth day, one of the parameters used to determine if cognitive impairments have recovered was the time it took the mice to travel from the initial portion to locate the hidden stage in the intended part (escape latency). […]

[3] = tested on: Superoxide dismutase (SOD); test: Superoxide dismutase (SOD) assay in brain homogenate; type: in vivo; settings: brain THS of mice, scopolamine 1.5 mg/kg i.p.; donepezil and compounds 2 mg/kg p.o.; mean ± SD
Protocol: as §1, §2
The samples contained EDTA, sodium carbonate, and NBT, and the assay was performed using Kono's method. Each sample tube contained 2.0 mL of this mixture, as well as THS and hydroxylamine. The absorbance of the mixture was measured at 560 nm every 30 or 60 s for 2 min to track changes in absorbance.

[4] = biological target: T1, Acetylcholinesterase (AChE) (Mus musculus, UniProt P21836); settings: brain THS of mice, scopolamine 1.5 mg/kg i.p.; donepezil and compounds 2 mg/kg p.o.; mean ± SD
T1 sequence (P21836 32-614): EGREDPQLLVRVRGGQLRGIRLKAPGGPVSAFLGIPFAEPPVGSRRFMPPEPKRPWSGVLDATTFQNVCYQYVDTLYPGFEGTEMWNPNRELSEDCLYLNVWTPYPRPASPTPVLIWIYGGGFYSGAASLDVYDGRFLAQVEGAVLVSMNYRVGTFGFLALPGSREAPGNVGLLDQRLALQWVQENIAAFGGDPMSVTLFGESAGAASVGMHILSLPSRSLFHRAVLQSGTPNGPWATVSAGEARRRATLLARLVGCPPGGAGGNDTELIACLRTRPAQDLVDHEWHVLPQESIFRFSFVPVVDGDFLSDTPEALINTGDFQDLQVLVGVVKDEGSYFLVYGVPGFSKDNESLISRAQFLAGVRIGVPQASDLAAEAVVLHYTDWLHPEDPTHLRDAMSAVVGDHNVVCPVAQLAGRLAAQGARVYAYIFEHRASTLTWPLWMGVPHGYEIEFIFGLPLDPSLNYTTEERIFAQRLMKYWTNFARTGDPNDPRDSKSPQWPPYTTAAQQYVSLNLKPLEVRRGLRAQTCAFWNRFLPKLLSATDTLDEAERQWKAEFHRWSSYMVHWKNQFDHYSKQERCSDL
Protocol: as §1, §2
Employing Ellman et al., methodology, AChE levels were quantified in tissue homogenate supernatant (THS) to evaluate cholinergic abnormalities.

[5] = mice, scopolamine 1.5 mg/kg i.p., donepezil and compounds 2 mg/kg p.o. with scopolamine, mean ± SD

| Substance | Nitrite assay, nitrite conc. (nitrite) | GSH assay, μmol of GSH/mg Protein [1] | LPO assay, MDA levels (malondialdehyde (MDA)) | Catalase assay, Catalase activity (Catalase) | escape latency versus scopolamine-treated mice (in words) [2] | Escape latency, 1st Day ([2]; mice, scopolamine 1.5 mg/kg i.p., donepezil and compounds 2 mg/kg p.o. with scopolamine, day 1, mean ± SD) | Escape latency, 2nd Day [2, 5] | Escape latency, 3rd Day [2, 5] | Escape latency, 4th Day [2, 5] | Escape latency, 5th Day [2, 5] | SOD assay, SOD units/mg protein [3] | μM of AChE/min/mg protein [4] |
| --- | --- | --- | --- | --- | --- | --- | --- | --- | --- | --- | --- | --- |
| N-(1-(1-(3,4-dimethoxybenzyl)-2-oxopyrrolidin-3-yl)piperidin-4-yl)-2,4-difluorobenzenesulfonamide [Compound 10] | 12.82 ± 0.04 μM/mg protein | 0.10 ± 0.005 μmol of GSH/mg Protein | 8.52 ± 0.05 nM/mg of tissue | 4.3 ± 0.01 min⁻¹ | significantly reduced escape latency | 80.33 ± 1.09 s | 36 ± 1.09 s | 25.33 ± 1.79 s | 17 ± 1.67 s | 3.66 ± 1.88 s | 3.07 ± 0.04 SOD units/mg protein | 0.01 ± 0.01 μM of AChE/min/mg protein |
| N-(1-(1-(3,4-dimethoxybenzyl)-2-oxopyrrolidin-3-yl)piperidin-4-yl)-4-fluorobenzenesulfonamide [Compound 8] | 11.92 ± 0.05 μM/mg protein | 0.11 ± 0.001 μmol of GSH/mg Protein | 9.71 ± 0.03 nM/mg of tissue | 5.23 ± 0.02 min⁻¹ | significantly reduced escape latency | – | 43 ± 2.68 s | 22.66 ± 1.79 s | 14.16 ± 2.56 s | 5.66 ± 1.97 s | 4.07 ± 0.03 SOD units/mg protein | 0.01 ± 0.01 μM of AChE/min/mg protein |
